The subject of one assay is midbrain dopaminergic neurons. Description: Dopamine (DA) uptake assay in primary midbrain cultures. The class given is cell-based, rat. The note with it: Rattus norvegicus, Neuron, compound concentration 0.6 μM; midbrain culture; read-out: DA uptake % of control. Here is the method: Primary midbrain cultures were prepared from rat embryo ventral mesencephalon as described previously by Lin et al (1994). In brief, rostral mesencephalic tegmentum of embryonic day 16 rat embryos was collected in DMEM/F12 (Hyclone SH30023.01) containing 2 mM glutamine on ice, The tissue was treated with 0.1% trypsin in Hanks' balanced salt solution (HBSS, Gibco 14175-095) for 15 min at 37° C. and dissociated mechanically by mild trituration with a fire-polished glass pipet in growth medium plus 2% heat-inactivated fetal bovine serum (FBS). The growth medium consisted of equal volumes of Dulbecco's minimal essential medium DMEM (Gibco 12100-046) and HAM's F12 nutrient mixture (Gibco 21700-075) supplemented with 33 mM glucose, 13 mM sodium bicarbonate, 5 mM HEPES, 2 mM glutamine, 25 μg/ml insulin, 100 μg/ml transferrin, 60 μM putrescine, 20 nM progesterone, 30 nM sodium selenite, 5 U/ml penicillin G and 5 μg/ml streptomycin. 24-well tissue culture plate was coated by adding 15 μg/ml poly-1-ornithine hydrobromide solution at 0.5 ml/well, incubated at room temperature for 1 hr. The coating solution was removed and the well washed 3 times with distilled water and one wash with HBSS. The dissociated cells were plated onto polyornithine-coated wells at 250,000-350,000 trypan blue-excluding viable cells per well in 500 μl of above medium containing 1% FBS. After 3 h when most of the cells had adhered to the bottom of the well, the medium was replaced with 500 μl of fresh medium without FBS. A serial dilution of the sample to be assayed for trophic activity was added to each well in duplicate at the time of medium change or within 24 h thereafter. Unless otherwise stated, cultures were incubated at 37° C. without any further medium change up to 7 days. Primary hindbrain cultures were prepared as described for the midbrain cultures except that the rostral raphe region (instead of the rostral mesencephalon) was dissected and trypsinized for 20 (instead of 15) min.
[^3H]DA uptake was measured in cultures at day 7, and all the solutions were maintained at 37° C. The growth medium was removed, and the cultures were rinsed twice with 0.25 ml of uptake buffer, which consists of HBSS (Gibco 11201-092) supplemented with 28 mM glucose, 15 mM HEPES, 1 mM ascorbic acid (an antioxidant), and […] pargyline (a monoamine oxidase inhibitor). The cultures were then incubated with 0.25 ml of fresh uptake buffer containing 50 nM [^3H]DA (NEN/DuPont) for 20 min at 37° C. [^3H]DA uptake was stopped by removing the incubation mixture, and cells were then washed twice with 0.5 ml of the uptake buffer at room temperature. To release [^3H]DA from the cells, the cultures were lysed with 0.2 ml of 0.1 N NaOH for 1 h at room temperature, the lysate was then added to 1 ml of Microscint-20 (Packard 6013621), and counted for radioactivity in a microplate scintillation counter (Packard TopCount, NXT). Background values were obtained by adding to the uptake buffer 0.5 mM GBR-12909, a specific inhibitor of the high-affinity uptake pump of the dopaminergic neurons, and were usually <5% of the ^3H uptake in untreated control cultures. Forskolin (Fk, 25 μM) was employed as a positive control.
In the case of `O=C(/C=C/c1ccc(C(F)(F)F)cc1)Nc1ccc(S(=O)(=O)Nc2nccs2)cc1` [A′′′], the activity at 0.6 µM was 195%. On the same count and under the same terms, under `O=C(/C=C/c1cccc(Cl)c1Cl)Nc1ccc(S(=O)(=O)Nc2nccs2)cc1` [Y′′′′] stands 180%.

The assay is the same for the next values; noted with them: Rattus norvegicus, Neuron, compound concentration 0.7 μM; midbrain culture; read-out: DA uptake % of control.
Consider `Cc1cc(NS(=O)(=O)c2ccc(NC(=O)/C=C/c3c(Cl)cccc3Cl)cc2)no1` [I], for which the activity at 0.7 µM amounted to 150%.

Staying with this assay, now noted: Rattus norvegicus, Neuron, compound concentration 1.2 μM; midbrain culture; read-out: DA uptake % of control.
Regarding `O=C(/C=C/c1cccc([N+](=O)[O-])c1)Nc1ccc(S(=O)(=O)Nc2nccs2)cc1` [E′], the activity at 1.2 µM is 210%.

The same assay, now with this note: Rattus norvegicus, Neuron, compound concentration 1.25 μM; midbrain culture; read-out: DA uptake % of control.
`O=C(/C=C/c1cc2c(cc1Br)OCO2)Nc1ccc(S(=O)(=O)Nc2nccs2)cc1` [W″]: the activity at 1.25 µM was 330%.

Take `O=C(/C=C/c1ccc(F)cc1Cl)Nc1ccc(S(=O)(=O)Nc2nccs2)cc1` [W′′′′]: the activity at 1.25 µM was 190%.

As for `Cc1cc(C)cc(/C=C/C(=O)Nc2ccc(S(=O)(=O)Nc3nccs3)cc2)c1` [D′′′], the activity at 1.25 µM came to 240%. As to `O=C(/C=C/c1cccc(C(F)(F)F)c1)Nc1ccc(S(=O)(=O)Nc2nccs2)cc1` [H′′′′], the activity at 1.25 µM was found to be 240%. As for `O=C(/C=C/c1c(Cl)cccc1Cl)Nc1ccc(S(=O)(=O)Nc2ccccn2)cc1` [A″], the activity at 1.25 µM worked out at 340%. On the same count and under the same terms, under `Cc1cccc(/C=C/C(=O)Nc2ccc(S(=O)(=O)Nc3nc[nH]n3)cc2)c1` [E″] stands 290%.

For the compound `COc1ccc(/C=C/C(=O)Nc2ccc(S(=O)(=O)Nc3nccs3)cc2)c(Cl)c1OC` [I″], the activity at 1.25 µM came to 245%. For the compound `O=C(/C=C/c1cccc(Cl)c1)Nc1ccc(S(=O)(=O)Nc2nc[nH]n2)cc1` [B′′′′′], the activity at 1.25 µM stood at 230%.

Regarding `O=C(/C=C/c1ccccc1Br)Nc1ccc(S(=O)(=O)Nc2nc[nH]n2)cc1` [D″], the activity at 1.25 µM is 310%.

With `O=C(CCN1C(=O)S/C(=C\c2ccc(Cl)cc2)C1=O)Nc1ccc(S(=O)(=O)Nc2nccs2)cc1` [S′], the activity at 1.25 µM stood at 150%.

Turning to `O=C(/C=C/c1ccccc1C(F)(F)F)Nc1ccc(S(=O)(=O)Nc2nc[nH]n2)cc1` [G″], the activity at 1.25 µM amounted to 350%. `COc1ccc(/C=C/C(=O)Nc2ccc(S(=O)(=O)Nc3nccs3)cc2)c(OC)c1` [Z′′′′]: the activity at 1.25 µM was found to be 170%.

Staying with this assay, now noted: Rattus norvegicus, Neuron, compound concentration 2.5 μM; midbrain culture; read-out: DA uptake % of control.
For the compound `Cc1ccc(/C=C/C(=O)Nc2ccc(S(=O)(=O)Nc3onc(C)c3C)cc2)cc1` [N′], the activity at 2.5 µM was 155%. Turning to `O=C(/C=C/c1cccc(F)c1)Nc1ccc(S(=O)(=O)Nc2nc[nH]n2)cc1` [S″], the activity at 2.5 µM came to 280%. As for `O=C(/C=C/c1ccccc1Cl)Nc1ccc(S(=O)(=O)N2CCOCC2)cc1` [I′], the activity at 2.5 µM turned out to be 150%. Turning to `COc1ccccc1/C=C/C(=O)Nc1ccc(S(=O)(=O)NC(=N)/C=C(\C)O)cc1` [W′′′], the activity at 2.5 µM is 140%.

In the case of `O=C(/C=C/c1ccccc1[N+](=O)[O-])Nc1ccc(S(=O)(=O)Nc2nccs2)cc1` [P′′′′], the activity at 2.5 µM came to 150%.

Consider `CC(C)(C)c1ccc(C(=O)Nc2ccc(S(=O)(=O)Nc3nccs3)cc2)cc1` [H], for which the activity at 2.5 µM came to 150%.

`Cc1ccc(/C=C/C(=O)Nc2ccc(S(=O)(=O)Nc3nccs3)cc2)cc1` [E]: the activity at 2.5 µM was determined as 260%. Consider `COc1ccccc1/C=C/C(=O)Nc1ccc(S(=O)(=O)Nc2nc[nH]n2)cc1` [Y″], for which the activity at 2.5 µM is 180%.

With `Cc1ccccc1/C=C/C(=O)Nc1ccc(S(=O)(=O)Nc2nccs2)cc1` [T″], the activity at 2.5 µM was 230%.

With `COc1ccc(/C=C2\SC(=O)N(CCC(=O)Nc3ccc(S(=O)(=O)Nc4nccs4)cc3)C2=O)cc1` [R′], the activity at 2.5 µM came to 155%. As to `O=C(/C=C/c1cccc(F)c1)Nc1ccc(S(=O)(=O)Nc2nccs2)cc1` [I′′′′], the activity at 2.5 µM was 200%. As to `O=C(/C=C/c1ccc(F)cc1C(F)(F)F)Nc1ccc(S(=O)(=O)Nc2nc[nH]n2)cc1` [Q″], the activity at 2.5 µM came out at 270%. With `COc1ccccc1/C=C/C(=O)Nc1ccc(S(=O)(=O)Nc2nccs2)cc1` [K′′′], the activity at 2.5 µM is 170%. In the case of `Cc1ccc(/C=C/C(=O)Nc2ccc(S(=O)(=O)Nc3nc(C)cc(C)n3)cc2)cc1` [O′], the activity at 2.5 µM worked out at 150%. For `O=C(/C=C/c1ccc(Oc2ccccc2)cc1)Nc1ccc(S(=O)(=O)Nc2nccs2)cc1` [N], the activity at 2.5 µM was 170%. On to `O=C(/C=C/c1ccccc1)Nc1ccc(S(=O)(=O)Nc2nccs2)cc1` [B], for which the activity at 2.5 µM turned out to be 170%. `CN(C)c1ccc(C(=O)Nc2ccc(S(=O)(=O)Nc3nccs3)cc2)cc1` [E′′′]: the activity at 2.5 µM turned out to be 130%. As for `O=C(Nc1ccc(S(=O)(=O)Nc2nccs2)cc1)c1cc2ccccc2s1` [N′′′′], the activity at 2.5 µM is 170%. As for `O=C(/C=C/c1ccccc1F)Nc1ccc(S(=O)(=O)Nc2ccccn2)cc1` [Z′′′], the activity at 2.5 µM stood at 140%.

`O=C(Nc1ccc(S(=O)(=O)Nc2nccs2)cc1)c1cc2ccccc2[nH]1` [K′′′′]: the activity at 2.5 µM is 150%.

Turning to `O=C(/C=C/c1ccccc1Cl)Nc1ccc(S(=O)(=O)Nc2ncccn2)cc1` [C′], the activity at 2.5 µM came to 140%.

Take `O=C(/C=C/c1cccc(Br)c1)Nc1ccc(S(=O)(=O)Nc2nccs2)cc1` [M′′′′]: the activity at 2.5 µM was found to be 190%.

The same assay, now with this note: Rattus norvegicus, Neuron, compound concentration 5 μM; midbrain culture; read-out: DA uptake % of control.
In the case of `O=C(/C=C/c1ccccc1)Nc1ccc(S(=O)(=O)Nc2nnc[nH]2)cc1` [Q′′′], the activity at 5 µM worked out at 170%. Turning to `O=C(CCN1C(=O)S/C(=C\c2ccccc2)C1=O)Nc1ccc(S(=O)(=O)Nc2nccs2)cc1` [Q′], the activity at 5 µM is 180%. Consider `CCc1nnc(NS(=O)(=O)c2ccc(NC(=O)c3ccc(Cl)cc3Cl)cc2)s1` [B′], for which the activity at 5 µM was 150%. Same read-out and setting: under `Cc1cccc(/C=C/C(=O)Nc2ccc(S(=O)(=O)Nc3ccccn3)cc2)c1` [B′′′′] stands 240%; under `Cc1noc(NS(=O)(=O)c2ccc(NC(=O)/C=C/c3ccccc3Cl)cc2)c1C` [L′], 140%; under `O=C(Nc1ccc(S(=O)(=O)Nc2nccs2)cc1)c1ccc(Br)cc1` [P], 160%.

Staying with this assay, now noted: Rattus norvegicus, Neuron, compound concentration 10 μM; midbrain culture; read-out: DA uptake % of control.
For the compound `COc1cccc(C(=O)Nc2ccc(S(=O)(=O)Nc3nccs3)cc2)c1` [F′′′], the activity at 10 µM was determined as 140%. For `O=C(Nc1ccc(S(=O)(=O)Nc2nccs2)cc1)/C(F)=C/c1ccccc1` [O′′′′], the activity at 10 µM came out at 200%. For `CCc1nnc(NS(=O)(=O)c2ccc(NC(=O)/C=C/c3ccc(OC)cc3OC)cc2)s1` [U], the activity at 10 µM was 150%.

Turning to `CCCCCCCC(=O)Nc1ccc(S(=O)(=O)Nc2nccs2)cc1` [W′], the activity at 10 µM was determined as 200%. In the case of `O=C(/C=C/c1ccccc1O)Nc1ccc(S(=O)(=O)Nc2ccccn2)cc1` [O′′′], the activity at 10 µM worked out at 150%. Same read-out and setting: as for `O=C(Nc1ccc(S(=O)(=O)Nc2nccs2)cc1)c1cccc(C(F)(F)F)c1` [V], the figure is 220%.

With `COc1cccc(/C=C/C(=O)Nc2ccc(S(=O)(=O)Nc3ccccn3)cc2)c1` [N′′′], the activity at 10 µM turned out to be 180%.

Staying with this assay, now noted: Rattus norvegicus, Neuron, compound concentration 20 μM; midbrain culture; read-out: DA uptake % of control.
Regarding `O=C(COc1ccc(Cl)cc1)Nc1ccc(S(=O)(=O)Nc2nccs2)cc1` [Compound D], the activity at 20 µM is 210%.

Regarding `CCc1nnc(NS(=O)(=O)c2ccc(NC(=O)c3ccc(Cl)cc3)cc2)s1` [X], the activity at 20 µM turned out to be 140%. Same read-out and setting: as for `COc1cc(OC)cc(C(=O)Nc2ccc(S(=O)(=O)Nc3nccs3)cc2)c1` [J], the figure is 150%.

The same assay, now with this note: Rattus norvegicus, Neuron, compound concentration 40 μM; midbrain culture; read-out: DA uptake % of control.
With `O=C(/C=C/c1ccccc1)Nc1ccc(S(=O)(=O)Nc2nncs2)cc1` [T′′′], the activity at 40 µM was found to be 150%. Regarding `COc1ccc(/C=C/C(=O)Nc2ccc(S(=O)(=O)Nc3cc(C)nc(C)n3)cc2)cc1OC` [Y], the activity at 40 µM came out at 160%.

Still in this assay, the particulars now being: compound concentration 1.25 μM; midbrain culture; 1.25 µM.
Turning to `O=C(/C=C/c1c(Cl)cccc1Cl)Nc1ccc(S(=O)(=O)Nc2nccs2)cc1` [C′′′′′], the “DA uptake % of control” value is recorded as 310% of control.

Source of the values: patent US7671077B2, “Neuroprotective small organic molecules, compositions and uses related thereto” (priority 2004, dated 2010).
